Data published in ChEMBL document CHEMBL1144786, “synthesis and biological evaluation of fully functionalized seco-pancratistatin analogues” (2008).
Converted amounts (≈) assume the structure as drawn.

What was measured:
MCF7 = assay: Cytotoxicity against human MCF7 cells; type: functional; conditions: read-out: ED50 (the source's name)
P388 = assay: Cytotoxicity against mouse P388 cells; type: functional; conditions: read-out: ED50 (the source's name)

| Compound | EC50 (MCF7) | EC50 (P388) |
| --- | --- | --- |
| O=C(NC[C@@H](c1ccc2c(c1)OCO2)[C@@H](O)[C@H](O)[C@@H](O)CO)c1ccccc1 | > 30 µg/mL |  |
| O=C1N[C@H]2[C@H](O)[C@H](O)CC[C@@H]2c2cc3c(cc21)OCO3 |  | 1.39 µg/mL (≈ 5.01 µM) |
| CC1(C)O[C@@H]([C@H](O)[C@@H](CNC(=O)c2ccccc2)c2ccc3c(c2)OCO3)[C@H](CO)O1 | > 30 µg/mL |  |
| O=C1N[C@H]2C[C@H](O)[C@@H](O)C[C@@H]2c2cc3c(cc21)OCO3 |  | 0.45 µg/mL (≈ 1.62 µM) |
| O=C1N[C@H]2[C@H](O)[C@H](O)[C@@H](O)[C@H](O)[C@@H]2c2cc3c(c(O)c21)OCO3 [PANCRATISTATIN] |  | 0.039 µg/mL (≈ 0.12 µM) |
